From US20010052137A1, “Axin domain-like polypeptide inhibitors of glycogen synthase kinase 3 beta activity and activators of wnt signaling” (Trustees of the University of Pennsylvania, priority 2000, published 2001)
Ends that are not written are not given here.

What was measured:
[1] = tested on: LEF-1 dependent transcription (wnt signaling); assay: LEF-luciferase reporter of wnt signaling in 293T cells; format: cell-based; conditions: at 37°
Description: LEF-1 (also designated tcf) is a DNA-binding protein that also binds with beta-catenin. The beta-catenin/LEF-1 complex is known to activate transcription of wnt target genes. A genetic construct was made which comprised this LEF-1-binding promoter operably linked with a luciferase gene, for use as a reporter of wnt signaling.
Single plasmids encoding individual GID fragments were transfected into 293T cells, together with the LEF-luciferase reporter, and luciferase activity was measured after 24 hours. GID fragments induced up to 100- to 250-fold activation of LEF-luciferase (normalized to activity from the mutated LEF-reporter control, which was activated less than 2-fold).

GSK-3 beta [2] = assay: Co-immunoprecipitation of GSK-3 beta with Myc-tagged Xaxin constructs in Xenopus oocytes; format: binding; conditions: Myc-tagged construct co-expressed with GSK-3 beta in Xenopus oocytes; anti-Myc IP, anti-GSK-3 beta blot
GSK-3 beta [3] = assay: In ovo tau phosphorylation assay: GSK-3 beta and Xaxin constructs co-expressed in Xenopus oocytes; format: cell-based; conditions: construct co-expressed with GSK-3 beta in Xenopus oocytes; tau microinjected; PHF-1 immunoblot
Description: Stage VI Xenopus oocytes were isolated by collagenase treatment (Smith et al., 1994, Meth. Cell Biol. 36:45-58) and were injected with mRNA prepared by in vitro transcription (mMessage Machine™; Ambion, Austin, Tex.). 10 nanoliters of mRNA (containing 1-2 nanograms per nanoliter) was injected for each construct (unless otherwise specified), and the injected oocytes were incubated for 16 hours at 18° C. To analyze the effects of Xaxin constructs on dorsal-ventral pattern formation, Xenopus embryos were injected with 10 nanoliters of mRNA (0.1-0.2 nanogram per nanoliter) into one dorsal or ventral cell of a 4 cell embryo and dorsal axes were assessed at the tadpole stage. For Xaxin co-immunoprecipitation, fertilized eggs were injected with 10 nanoliters of Xaxin tagged with Myc, with hemagglutinin, or with both Myc and hemagglutinin (1 nanogram per nanoliter) and harvested at the blastula stage (stage 8).
In ovo phosphorylation of tau by GSK-3 beta was performed by microinjection of tau protein into oocytes expressing GSK-3 beta and Xaxin constructs. After 90 minutes, oocytes were homogenized and tau phosphorylation was analyzed in western blots using phospho-specific antibodies as described (Hedgepeth et al., 1997, Develop. Biol. 185:82-91). In vitro assays for GSK-3 beta activity were performed as described (Klein et al., 1996, Proc. Natl. Acad. Sci. USA 93:8455-8459). Recombinant GID-2/his protein (described below) was purified by affinity chromatography and added to in vitro assays at selected concentrations. […]
GSK-3 beta was expressed in oocytes together with Myc-tagged full length Xaxin or with the amino-terminal (amino acid residues 63-288), GID-1 (amino acid residues 277-545), or carboxyl-terminal (amino acid residues 429-713) fragments of Xaxin, as depicted in FIG. 1A. Purified tau protein was then microinjected into the oocytes, and phosphorylation of tau was measured by immunoblotting using antibody PHF-1 or with antibodies that detect all (i.e. phosphorylated and non-phosphorylated) forms of tau. […]

“GID5-6FY: GID mutant in which phenylalanine-388 is replaced with a tyrosine residue (DIHVDPEKYAAELISRLEGVLRDRE)” was tested, and the “reduction of activity in LEF-luciferase assay compared to wild-type” value [1] was “approximately 10 fold”.
In the case of “GID-3: Myc-tagged fragment, Xaxin amino acid residues 320-375 (DSEQQSMSSDADTMSLTDSSVDGIPPYRLRKHYRREMQESANANGRGPLPHIPRTY; also: Myc-tagged fragment)”, the “binding with GSK-3 beta (co-immunoprecipitation)” value (shortened to “binding with GSK-3 beta”) (GSK-3 beta [2]) is reported as “did not bind” and the “GSK-3 beta-mediated tau phosphorylation (GSK-3 beta activity)” value (shortened to “GSK-3 beta-mediated tau phosphorylation”) (GSK-3 beta [3]) is reported as “no effect”.
In the case of “GID-5: Myc-tagged fragment, Xaxin amino acid residues 380-429 (DIHVDPEKFAAELISRLEGVLRDREAEQKLEERLKRVRAEEEGDDGDVSS; also: Myc-tagged fragment)”, the “binding with GSK-3 beta” value (GSK-3 beta [2]) is reported as “bound” and the “GSK-3 beta-mediated tau phosphorylation” value (GSK-3 beta [3]) is reported as “inhibited”.
“GID-6: Myc-tagged fragment, Xaxin amino acid residues 380-404 (SEQ ID NO: 1) (DIHVDPEKFAAELISRLEGVLRDRE; also: Myc tag)” was tested, and the “binding with GSK-3 beta” value (GSK-3 beta [2]) was “bound” and the “GSK-3 beta-mediated tau phosphorylation” value (GSK-3 beta [3]) was “inhibited”.
